Measured values reported in the supplement of paper PMC10627819.
Converted amounts (≈) assume the structure as drawn.

Columns and labels:
S. aureus Newman [1] = assay: fitness (endpoint OD595 vs no drug) (fraction); higher = more growth
Procedure, shortened: (§1)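 Fitness was defined as the optical density at the transition into stationary phase relative to the robust mean of no-drug control wells. Values were capped at 1. Cultures were started at OD595 0.01 in 384-well plates (30 µl, or 55 µl for S. pneumoniae) in TSB, LB Lennox or CY at 37 °C. OD595 was recorded every 30 min over 14 h, with the first reading subtracted as background.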

B. subtilis 168 [2] = assay: as above
Procedure, shortened: as §1

S. aureus DSM 20231 [3] = assay: as above
Procedure, shortened: as §1

S. pneumoniae D39V [4] = assay: as above
Procedure, shortened: as §1

S. aureus Newman [5] = system: S. aureus Newman
B. subtilis 168 [6] = system: B. subtilis 168
S. aureus DSM 20231 [7] = system: S. aureus DSM 20231
S. pneumoniae D39V [8] = system: S. pneumoniae D39V

COc1ccc(C[C@H](N)C(=O)N[C@H]2[C@@H](O)[C@H](n3cnc4c(N(C)C)ncnc43)O[C@@H]2CO)cc1 [Puromycin]
fitness
Details | 0.39 µg/mL | 0.78 µg/mL | 1 µg/mL | 1.56 µg/mL | 2 µg/mL | 4 µg/mL
B. subtilis 168 [2] | 0.931 | 0.929 | – | 0.94 | – | –
S. aureus DSM 20231 [3] | ≥ 1 | ≥ 1 | – | ≥ 1 | – | –
S. aureus Newman [1] | 0.985 | 0.993 | – | ≥ 1 | – | –
S. pneumoniae D39V [4] | – | – | ≥ 1 | – | 0.977 | 0.76

Details | MIC [µg/mL]
B. subtilis 168 [6] | 1.56 (≈ 3.31 µM)
S. aureus DSM 20231 [7] | 1.8 (≈ 3.82 µM)
S. aureus Newman [5] | 1.8 (≈ 3.82 µM)
S. pneumoniae D39V [8] | 12.5 (≈ 26.5 µM)

Cc1ncc([N+](=O)[O-])n1CCO [Metronidazole]
fitness
Details | 0.625 µg/mL | 0.781 µg/mL | 1.25 µg/mL | 1.562 µg/mL | 2.5 µg/mL | 3.124 µg/mL | 5 µg/mL
B. subtilis 168 [2] | 0.955 | – | 0.946 | – | 0.94 | – | –
S. aureus DSM 20231 [3] | ≥ 1 | – | ≥ 1 | – | ≥ 1 | – | –
S. aureus Newman [1] | ≥ 1 | ≥ 1 | ≥ 1 | ≥ 1 | ≥ 1 | 0.999 | –
S. pneumoniae D39V [4] | – | – | ≥ 1 | – | ≥ 1 | – | 0.997

Details | MIC [µg/mL]
B. subtilis 168 [6] | 5 (≈ 29.2 µM)
S. aureus DSM 20231 [7] | 3 (≈ 17.5 µM)
S. aureus Newman [5] | 3 (≈ 17.5 µM)
S. pneumoniae D39V [8] | 10 (≈ 58.4 µM)

COc1cccc2c1C(=O)c1c(O)c3c(c(O)c1C2=O)C[C@@](O)(C(=O)CO)C[C@@H]3O[C@H]1C[C@H](N)[C@H](O)[C@H](C)O1 [Doxorubicin]
fitness
Details | 0.25 µg/mL | 0.5 µg/mL | 0.625 µg/mL | 1 µg/mL | 1.25 µg/mL | 2.5 µg/mL
B. subtilis 168 [2] | – | – | 0.946 | – | 0.918 | 0.816
S. aureus DSM 20231 [3] | – | – | 0.967 | – | 0.907 | 0.827
S. aureus Newman [1] | – | – | 0.896 | – | 0.791 | 0.68
S. pneumoniae D39V [4] | 0.86 | 0.903 | – | 0.781 | – | –

Details | MIC [µg/mL]
B. subtilis 168 [6] | 5 (≈ 9.2 µM)
S. aureus DSM 20231 [7] | 2.78 (≈ 5.11 µM)
S. aureus Newman [5] | 2.78 (≈ 5.11 µM)
S. pneumoniae D39V [8] | 1.2 (≈ 2.21 µM)

CN(C)c1cc(NC(=O)CNC(C)(C)C)c(O)c2c1C[C@H]1C[C@H]3[C@H](N(C)C)C(O)=C(C(N)=O)C(=O)[C@@]3(O)C(O)=C1C2=O [Tigecycline]
Details | fitness
B. subtilis 168 [2], 0.039 µg/mL | 0.953
B. subtilis 168 [2], 0.078 µg/mL | 0.95
B. subtilis 168 [2], 0.156 µg/mL | 0.933
S. aureus Newman [1], 0.039 µg/mL | 0.975
S. aureus Newman [1], 0.078 µg/mL | 0.959
S. aureus Newman [1], 0.156 µg/mL | 0.973
S. pneumoniae D39V [4], 0.325 µg/mL | 0.971
S. pneumoniae D39V [4], 0.65 µg/mL | 0.959
S. pneumoniae D39V [4], 1.3 µg/mL | 0.966
S. pneumoniae D39V [4], 2.6 µg/mL | 0.965

Details | MIC [µg/mL]
B. subtilis 168 [6] | 0.312 (≈ 0.533 µM)
S. aureus DSM 20231 [7] | 0.18 (≈ 0.307 µM)
S. aureus Newman [5] | 0.18 (≈ 0.307 µM)
S. pneumoniae D39V [8] | 3 (≈ 5.12 µM)

CO/N=C(\C(=O)N[C@@H]1C(=O)N2C(C(=O)O)=C(COC(N)=O)CS[C@H]12)c1ccco1 [Cefuroxime]
B. subtilis 168 [2]
Details | fitness
0.195 µg/mL | 0.319
0.39 µg/mL | 0.26
0.78 µg/mL | 0.212
1.562 µg/mL | 0.332
3.125 µg/mL | 0.264
6.25 µg/mL | 0.227

Details | MIC [µg/mL]
B. subtilis 168 [6] | 2 (≈ 4.71 µM)
S. aureus DSM 20231 [7] | 0.25 (≈ 0.589 µM)
S. aureus Newman [5] | 0.25 (≈ 0.589 µM)
S. pneumoniae D39V [8] | 0.25 (≈ 0.589 µM)

CN(C)[C@@H]1C(O)=C(C(N)=O)C(=O)[C@@]2(O)C(O)=C3C(=O)c4c(O)ccc(Cl)c4[C@@](C)(O)[C@H]3C[C@@H]12 [Chlortetracycline]
fitness
Details | 0.012 µg/mL | 0.0238 µg/mL | 0.024 µg/mL | 0.0475 µg/mL | 0.048 µg/mL | 0.095 µg/mL | 0.19 µg/mL
B. subtilis 168 [2] | – | – | – | 0.895 | – | 0.8 | 0.524
S. aureus DSM 20231 [3] | 0.793 | – | 0.441 | – | 0.073 | – | –
S. aureus Newman [1] | 0.683 | 0.237 | 0.402 | 0.0993 | 0.0667 | 0.0061 | –
S. pneumoniae D39V [4] | 0.857 | – | 0.703 | – | 0.526 | – | –

Details | MIC [µg/mL]
B. subtilis 168 [6] | 0.4 (≈ 0.835 µM)
S. aureus DSM 20231 [7] | 0.15 (≈ 0.313 µM)
S. aureus Newman [5] | 0.095 (≈ 0.198 µM)
S. pneumoniae D39V [8] | 1.5 (≈ 3.13 µM)

N#CC(C#N)=NNc1cccc(Cl)c1 [CCCP]
S. pneumoniae D39V [4]
Details | fitness
0.575 µg/mL | 0.981
1.15 µg/mL | 0.968
2.3 µg/mL | 0.942

Details | MIC [µg/mL]
B. subtilis 168 [6] | 2.3 (≈ 11.2 µM)
S. pneumoniae D39V [8] | 4.5 (≈ 22 µM)

C[C@H]1c2cccc(O)c2C(=O)C2=C(O)[C@]3(O)C(=O)C(C(N)=O)=C(O)[C@@H](N(C)C)[C@@H]3[C@@H](O)[C@@H]21 [Doxycycline]
fitness
Details | 0.0155 µg/mL | 0.02 µg/mL | 0.031 µg/mL | 0.04 µg/mL | 0.062 µg/mL | 0.08 µg/mL
B. subtilis 168 [2] | – | 0.876 | – | 0.754 | – | 0.457
S. pneumoniae D39V [4] | 0.789 | – | 0.73 | – | 0.59 | –

Details | MIC [µg/mL]
B. subtilis 168 [6] | 0.08 (≈ 0.18 µM)
S. aureus DSM 20231 [7] | 0.034 (≈ 0.0765 µM)

CC(=O)Oc1ccccc1C(=O)O [Acetylsalicylic acid]
fitness
Details | B. subtilis 168 [2] | S. aureus DSM 20231 [3] | S. pneumoniae D39V [4]
250 µg/mL | 0.948 | 0.991 | 0.967
500 µg/mL | 0.911 | 0.888 | 0.965
1000 µg/mL | 0.745 | 0.522 | 0.924

Details | MIC [µg/mL]
B. subtilis 168 [6] | 2000 (≈ 11100 µM)
S. aureus DSM 20231 [7] | 1000 (≈ 5550 µM)
S. aureus Newman [5] | 2000 (≈ 11100 µM)
S. pneumoniae D39V [8] | 2000 (≈ 11100 µM)

C[C@@H]1O[C@@H]1P(=O)(O)O [Fosfomycin]
Details | fitness
B. subtilis 168 [2], 1.562 µg/mL | 0.712
B. subtilis 168 [2], 3.124 µg/mL | 0.594
B. subtilis 168 [2], 6.248 µg/mL | 0.422
S. aureus DSM 20231 [3], 0.781 µg/mL | 0.875
S. aureus DSM 20231 [3], 1.562 µg/mL | 0.693
S. aureus DSM 20231 [3], 3.124 µg/mL | 0.535
S. aureus Newman [1], 0.781 µg/mL | 0.686
S. aureus Newman [1], 1.562 µg/mL | 0.485
S. aureus Newman [1], 3.124 µg/mL | 0.123
S. pneumoniae D39V [4], 1.25 µg/mL | 0.966
S. pneumoniae D39V [4], 2.5 µg/mL | 0.895
S. pneumoniae D39V [4], 5 µg/mL | 0.716

Details | MIC [µg/mL]
B. subtilis 168 [6] | 12.5 (≈ 90.5 µM)
S. aureus DSM 20231 [7] | 3.5 (≈ 25.4 µM)
S. aureus Newman [5] | 3.5 (≈ 25.4 µM)
S. pneumoniae D39V [8] | 6.25 (≈ 45.3 µM)
